The values below are quoted from earlier work in US20210235730A1, “FOOD PROTECTION OF FRUIT, CEREAL AND VEGETABLE AND DERIVATIVES” (Hawei Technologies Co., Ltd., priority 2018, published 2021).

Molecules are shown by their SMILES.

Series [1] has as its system coliform microorganisms and arerobic spore-forming microorganisms. As to conditions: raw pork, heat-treated and pasteurised.
The next series relates to moulds and yeasts. As to conditions: raw pork, heat-treated and pasteurised.

For the molecule `N=C(N)N` [guanidium], the “effect on coliform and aerobic spore-forming microorganisms” value in series [1] is recorded as “not significantly influenced”. In addition, the “effect on growth of moulds and yeasts” value with moulds and yeasts was “has an effect on the growth”.
